Experimental data published in patent US6951882B2, “Substituted 4-phenyl-[1,3]-dioxanes” (Janssen Pharmaceutica N.V., priority 2002, dated 2005).
pKi: −log10 of the molar value.

Assays:
[1] = target: T1, orexin receptors in PFSK-1 cells (Homo sapiens, UniProt O43614); assay: Intracellular calcium ion measurement (FLIPR, Fluo-3 AM) in PFSK-1 cells, antagonism of orexin agonist; assay type: cell-based
T1 construct: host or cells: PFSK-1
T1 sequence (O43614 1-444): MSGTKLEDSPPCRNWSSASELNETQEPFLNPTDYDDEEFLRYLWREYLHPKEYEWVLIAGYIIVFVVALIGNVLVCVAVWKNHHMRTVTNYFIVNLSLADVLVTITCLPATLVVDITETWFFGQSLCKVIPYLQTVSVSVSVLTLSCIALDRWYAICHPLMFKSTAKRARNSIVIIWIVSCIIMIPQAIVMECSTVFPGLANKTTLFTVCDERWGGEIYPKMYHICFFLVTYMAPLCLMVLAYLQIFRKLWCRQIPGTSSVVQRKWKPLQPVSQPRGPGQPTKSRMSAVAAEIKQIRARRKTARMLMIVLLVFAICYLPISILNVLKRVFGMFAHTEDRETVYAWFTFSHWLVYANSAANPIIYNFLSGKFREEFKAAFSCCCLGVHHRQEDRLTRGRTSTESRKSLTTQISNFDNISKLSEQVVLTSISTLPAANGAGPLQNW
Procedure: PFSK-1 cells were obtained from the American Type Culture Collection (CRL-2060; Manassas, Va.) and cultured as described by Fults et al. (J. Neuropathology Exp. Neurology, 1992, 51 (3):272-280). Cells were grown on 10 or 15 cm tissue culture dishes (Corning Inc., Corning, N.Y.) in RPMI medium 1640 containing 25 mM Hepes and L-glutamine (Gibco/InVitrogen, Carlsbad, Calif.) supplemented with 10% fetal bovine serum (HyClone, Logan, Utah), 50 u/mL penicillin G, and 50 u/mL streptomycin sulphate. Cells grown on 10 dishes were grown in 10 mL complete medium, and cells grown on 15 cm dishes were grown in 30 mL complete medium. Cells were passed every 3 to 5 days at a 1:5 dilution by aspirating away the medium, adding 2 mL/dish Gibco/Invitrogen Trypsin-EDTA solution, aspirating away the solution, incubating at room temperature 5 min, and dispersing the cells into fresh plates using fresh complete medium. Cells were then maintained in incubators set to maintain 37° C. and 5% CO2.
Agonist binding of orexin receptors elevates the intracellular free calcium ion concentration through the activation of a Gq protein and the opening of voltage-activated plasmalemmal calcium channels (see: A. N. Van Den Pol et al. J. Neurosci., 1998, 18(19):7962-7971). This effect was monitored using the fluorescent Ca^++ indicator Fluo-3 AM (TefLabs, Austin, Tex.) and the Molecular Devices (Sunnyvale, Calif.) FLIPR instrument.
PFSK-1 cells were removed from confluent tissue culture dishes with trypsin-EDTA as described above and plated in 96-well Packard Viewplates (Meriden, Conn.) at 50,000 cells/well in 100 μL/well complete medium. The next day the cells, which adhered to the Viewplates and grew to confluency, were loaded with the fluorescent dye. […] Test compounds were added to the wells in an isotonic, pH-neutral vehicle, such as Dulbecco's phosphate-buffered saline, and changes in intracellular calcium concentrations were measured using the FLIPR instrument.
The compounds were delivered to the test wells, and the compounds and the cells were incubated to allow binding. […] The control column for the antagonist screen included positive and negative controls to indicate the fluorescence of a full agonist response and the baseline.
Antagonism was analyzed by calculating KB and pKB values for compounds found to inhibit increases in intracellular Ca^++ concentrations of PFSK-1 cells. This was accomplished by determining the EC50 of orexin B and comparing the IC50 values determined from dilutions of antagonist compound(s), all on a single 96-well Viewplate of PFSK-1 cells loaded with Fluo-3 AM. […] The KB is then determined after Y.-C. […]

orexin-2 receptor = target: T2, orexin-2 receptor (Homo sapiens, UniProt O43614); assay: Orexin radioligand binding assay (125I-orexin A, adherent recombinant cells); conditions: 125I-orexin A displacement, recombinant CHO-K1 or HEK-293 cells expressing the orexin receptor
T2 construct: expressed in transfected cells; host or cells: CHO-K1 (preferred) or HEK-293 recombinant clones
T2 sequence (O43614 1-444): T1 sequence (O43614 1-444)
Procedure: The reaction was quenched with 100 μL of 10% w/v bovine serum albumin, then the products were pre-purified using Waters Maxi-Clean C18 cartridges (Alltech, San Jose, Calif.). The mobile phase for the reverse phase separations (pre-purification and gradient HPLC) was 0.1% TFA, and the eluent was 0.1% TFA in acetonitrile. After removing the acetonitrile from the Maxi-Clean cartridge eluent by lyophilization, the labeled compound was further purified by gradient HPLC using a Vydac (Hesperia, Calif.) analytical C18 HPLC column. A gradient of 2% acetonitrile/min was used and fractions were collected every 0.75 min at a flow rate of 1.5 mL/min.
Radioligand binding assays were performed in opaque, white 96-well tissue culture plates pretreated with poly-D-lysine (Bio-Coat plates, Becton Dickinson, Franklin Lakes, N.J.). Cells expressing the orexin receptor were seeded at 30,000 cells/well in 100 μL/well Ham's F12 with 10% heat inactivated fetal bovine serum, penicillin/streptomycin and 800 mg/L G418. […] In preparation for the binding assay, the cell culture medium was aspirated away, and the cells were gently washed with 100 μL-well binding buffer (Dulbecco's phosphate buffered saline containing 0.1% w/v bovine serum albumin). […] The assay was terminated by aspirating the liquid from the wells, washing the wells with iced binding buffer, aspirating the wells dry, adding 50 μL/well scintillation cocktail (MicroScint 40, Packard Biosciences, Meriden Conn.), and counting the plate(s) in a Packard TopCount scintillation counter. […] Data were analyzed using GraphPad Prizm software to calculate Ki values.

Kb [1] [nM]	pKi (orexin-2 receptor)	SMILES
25.1	8.05	CC1(C)OC[C@H](NC(=O)Nc2ccc(Br)cc2Cl)[C@H](c2ccccc2)O1 [Example 1, 1-(4-Bromo-2-chloro-phenyl)-3-((4S,5S)-2,2-dimethyl-4-phenyl-[1,3]dioxan-5-yl)-urea]
5.01	8.00	CC1(C)OC[C@H](NC(=O)Nc2ccc(Br)cc2Br)[C@H](c2ccccc2)O1 [Example 4, 1-(2,4-Dibromo-phenyl)-3-((4S,5S)-2,2-dimethyl-4-phenyl-[1,3]dioxan-5-yl)-urea]
25.1	7.82	CC1(C)OC[C@H](NC(=O)Nc2ccc(Cl)cc2Cl)[C@H](c2ccccc2)O1 [Example 5, 1-(2,4-Dichloro-phenyl)-3-((4S,5S)-2,2-dimethyl-4-phenyl-[1,3]dioxan-5-yl)-urea]
6.31	8.30	Cc1ccc(NC(=O)N[C@H]2COC(C)(C)O[C@H]2c2ccccc2)c(Br)c1 [Example 12, 1-(2-Bromo-4-methyl-phenyl)-3-((4S,5S)-2,2-dimethyl-4-phenyl-[1,3]dioxan-5-yl)-urea]
	5.54	CC(C)c1ccccc1NC(=O)N[C@H]1COC(C)(C)O[C@H]1c1ccccc1 [Example 42, 1-((4S,5S)-2,2-Dimethyl-4-phenyl-[1,3]dioxan-5-yl)-3-(2-isopropyl-phenyl)-urea]
	5.30	CC1(C)OC[C@H](NC(=O)Nc2c(Cl)cccc2Cl)[C@H](c2ccccc2)O1 [Example 43, 1-(2,6-Dichloro-phenyl)-3-((4S,5S)-2,2-dimethyl-4-phenyl-[1,3]dioxan-5-yl)-urea]
	5.42	CC1(C)OC[C@H](NC(=O)Nc2cccc(Br)c2)[C@H](c2ccccc2)O1 [Example 44, 1-(3-Bromo-phenyl)-3-((4S,5S)-2,2-dimethyl-4-phenyl-[1,3]dioxan-5-yl)-urea]
	5.22	CC1(C)OC[C@H](NC(=O)Nc2ccc(F)cc2F)[C@H](c2ccccc2)O1 [Example 45, 1-(2,4-Difluoro-phenyl)-3-((4S,5S)-2,2-dimethyl-4-phenyl-[1,3]dioxan-5-yl)-urea]
	5.70	CC1(C)OC[C@H](NC(=O)Nc2cccc(Cl)c2)[C@H](c2ccccc2)O1 [Example 46, 1-(3-Chloro-phenyl)-3-((4S,5S)-2,2-dimethyl-4-phenyl-[1,3]dioxan-5-yl)-urea]
